Results: patent US20250275959A1, “COMPOUNDS AND METHODS OF THEIR USE” (LEXICON PHARMACEUTICALS, INC., priority 2024, published 2025)

How the values were obtained:
[1] = target: T1, hACSL5 (Homo sapiens (Human), UniProt Q9ULC5); test: Cell-based assay (CBA) with B12FA in hACSL5-transfected Expi293F / FlpIn TRex293 cells; settings: hACSL5-expressing cells
Method in brief: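 hACSL5-expressing Expi293F or tetracycline-induced FlpIn TRex293 cells, serum- and glucose-starved 1 h, then treated 3 h with serially diluted compound plus 20 µM B12FA. After fixation, 630/520 nm emission ratio (ex 485 nm) gave % inhibition versus no-inhibitor and 10 µM compound/non-induced controls; IC50 by Hill fit.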
Target sequence in this assay (Q9ULC5 whole entry): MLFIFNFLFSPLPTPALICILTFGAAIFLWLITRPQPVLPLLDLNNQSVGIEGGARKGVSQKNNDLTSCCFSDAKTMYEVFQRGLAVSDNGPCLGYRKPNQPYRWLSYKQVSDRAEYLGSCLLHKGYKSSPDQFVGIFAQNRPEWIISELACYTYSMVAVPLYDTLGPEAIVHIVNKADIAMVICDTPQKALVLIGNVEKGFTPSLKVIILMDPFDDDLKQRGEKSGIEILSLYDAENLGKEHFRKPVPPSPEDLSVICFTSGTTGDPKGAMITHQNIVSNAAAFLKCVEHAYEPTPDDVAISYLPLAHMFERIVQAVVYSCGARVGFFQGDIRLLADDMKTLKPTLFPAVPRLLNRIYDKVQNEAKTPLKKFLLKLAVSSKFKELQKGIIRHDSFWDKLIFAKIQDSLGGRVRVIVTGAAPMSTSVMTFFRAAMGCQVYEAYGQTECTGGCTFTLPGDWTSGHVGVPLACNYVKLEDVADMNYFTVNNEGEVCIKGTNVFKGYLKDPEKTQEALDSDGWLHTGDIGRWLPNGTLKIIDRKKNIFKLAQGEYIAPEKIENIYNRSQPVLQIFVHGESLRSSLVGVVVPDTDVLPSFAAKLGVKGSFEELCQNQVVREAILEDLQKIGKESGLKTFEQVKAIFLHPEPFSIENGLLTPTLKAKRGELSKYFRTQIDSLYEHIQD

[2] = target: T1, hACSL5; test: Human ACSL5 coupled enzyme Amplex Red assay; type: biochemical; settings: read-out: hACSL5 IC50
Method in brief: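 C-terminally His-tagged ACSL5 (33-683) from sf9 cells, 20 nM, was preincubated with compound in MOPS-NaOH pH 7.6 with MgCl2, peroxidase and acyl-CoA oxidase. Reactions were started with 25 μM oleate, 30 μM CoA, 1 mM ATP and 50 μM Amplex Red; fluorescence (535/590 nm) after 10 minutes at 25° C. was fitted to the Hill equation for IC50 and maximal inhibition.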
Target sequence in this assay (Q9ULC5 33-683): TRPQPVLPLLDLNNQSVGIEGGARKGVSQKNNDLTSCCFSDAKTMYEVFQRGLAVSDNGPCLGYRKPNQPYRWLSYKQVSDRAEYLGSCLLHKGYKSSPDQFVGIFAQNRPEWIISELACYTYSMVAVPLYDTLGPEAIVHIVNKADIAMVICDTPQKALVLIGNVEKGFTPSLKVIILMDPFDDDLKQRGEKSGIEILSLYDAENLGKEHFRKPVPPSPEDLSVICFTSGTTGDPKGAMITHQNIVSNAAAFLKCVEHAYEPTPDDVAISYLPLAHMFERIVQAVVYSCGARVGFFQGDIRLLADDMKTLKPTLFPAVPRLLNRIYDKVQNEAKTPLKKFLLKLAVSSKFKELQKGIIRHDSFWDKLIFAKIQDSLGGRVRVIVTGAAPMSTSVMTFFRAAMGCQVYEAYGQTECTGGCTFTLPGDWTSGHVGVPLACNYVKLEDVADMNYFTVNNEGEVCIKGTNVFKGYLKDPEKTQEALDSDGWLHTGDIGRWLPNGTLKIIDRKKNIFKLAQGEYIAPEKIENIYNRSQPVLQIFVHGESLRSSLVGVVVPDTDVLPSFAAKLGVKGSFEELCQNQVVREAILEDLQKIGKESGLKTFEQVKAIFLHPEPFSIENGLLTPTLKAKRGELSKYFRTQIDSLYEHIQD

Compound | IC50 [1] [nM] | IC50 [2] [nM]
CC[C@@H](Oc1ccc(C(=O)NS(=O)(=O)N2CCC(OC3CCN(C)CC3)CC2)c(F)c1F)c1cccc(OCC2CC2)c1 [(R)-4-(1-(3-(cyclopropylmethoxy)phenyl)propoxy)-2,3-difluoro-N-((4-((1-methylpiperidin-4-yl)oxy)piperidin-1-yl)sulfonyl)benzamide] | 100 to 500 | 100 to 500
CC[C@@H](Oc1ccc(C(=O)NS(=O)(=O)N2C[C@@H]3C[C@H]2CN3C)c(F)c1F)c1ccc(OCC2CC2)cn1 [4-((R)-1-(5-(cyclopropylmethoxy)pyridin-2-yl)propoxy)-2,3-difluoro-N-(((1S,4S)-5-methyl-2,5-diazabicyclo[2.2.1]heptan-2-yl)sulfonyl)benzamide] | 100 to 500 | 100 to 500
CC[C@@H](Oc1ccc(C(=O)NS(=O)(=O)c2ccc(OC3CCN(C)CC3)cc2)c(F)c1F)c1ccc(OCC2CC2)cn1 [(R)-4-(1-(5-(cyclopropylmethoxy)pyridin-2-yl)propoxy)-2,3-difluoro-N-((4-((1-methylpiperidin-4-yl)oxy)phenyl)sulfonyl)benzamide] | < 100 | < 100
CC[C@@H](Oc1ccc(C(=O)NS(=O)(=O)N2C[C@@H](C)N(C)[C@@H](C)C2)c(F)c1F)c1ccc(OCC2CC2)cn1 [4-((R)-1-(5-(cyclopropylmethoxy)pyridin-2-yl)propoxy)-2,3-difluoro-N-(((3S,5R)-3,4,5-trimethylpiperazin-1-yl)sulfonyl)benzamide] | < 100 | < 100
CC[C@@H](Oc1ccc(C(=O)NS(=O)(=O)N2CCC(OC3CCN(C)CC3)CC2)cc1C(F)(F)F)c1ccc(OC2CC(OC)C2)cn1 (stereo partly drawn) [4-((R)-1-(5-((1R,3R)-3-methoxycyclobutoxy)pyridin-2-yl)propoxy)-N-((4-((1-methylpiperidin-4-yl)oxy)piperidin-1-yl)sulfonyl)-3-(trifluoromethyl)benzamide] | 100 to 500 | < 100
CC[C@@H](Oc1ccc(C(=O)NS(=O)(=O)N2CCN(C)CC2)c(F)c1F)c1ccc(OCC2CC2)cn1 [(R)-4-(1-(5-(cyclopropylmethoxy)pyridin-2-yl)propoxy)-2,3-difluoro-N-((4-methylpiperazin-1-yl)sulfonyl)benzamide] | < 100 | < 100
CC[C@@H](Oc1ccc(C(=O)NS(=O)(=O)c2ccc(OCCNC3COC3)cc2)c(F)c1F)c1ccc(OCC2CC2)cn1 [(R)-4-(1-(5-(cyclopropylmethoxy)pyridin-2-yl)propoxy)-2,3-difluoro-N-((4-(2-(oxetan-3-ylamino)ethoxy)phenyl)sulfonyl)benzamide] | 100 to 500 | < 100
CC[C@@H](Oc1ccc(C(=O)NS(=O)(=O)c2ccc(OC3CCN(CCO)CC3)cc2)c(F)c1F)c1ccc(OCC2CC2)cn1 [(R)-4-(1-(5-(cyclopropylmethoxy)pyridin-2-yl)propoxy)-2,3-difluoro-N-((4-((1-(2-hydroxyethyl)piperidin-4-yl)oxy)phenyl)sulfonyl)benzamide] | 100 to 500 | < 100
CC[C@@H](Oc1ccc(C(=O)NS(=O)(=O)c2ccc(OCCN(C)C)cc2)cc1C(F)(F)F)c1ccc(OC2CC(OC)C2)cn1 (stereo partly drawn) [N-((4-(2-(dimethylamino)ethoxy)phenyl)sulfonyl)-4-((R)-1-(5-((1R,3R)-3-methoxycyclobutoxy)pyridin-2-yl)propoxy)-3-(trifluoromethyl)benzamide] | 100 to 500 | 100 to 500
CC[C@@H](Oc1ccc(C(=O)NS(=O)(=O)c2ccc(OCCN3CC[C@H](F)C3)cc2)c(F)c1F)c1ccc(OCC2CC2)cn1 [4-((R)-1-(5-(cyclopropylmethoxy)pyridin-2-yl)propoxy)-2,3-difluoro-N-((4-(2-((S)-3-fluoropyrrolidin-1-yl)ethoxy)phenyl)sulfonyl)benzamide] | 100 to 500 | < 100
CC[C@@H](Oc1ccc(C(=O)NS(=O)(=O)N2CCN(CCOC)CC2)c(F)c1F)c1ccc(OCC2CC2)cn1 [(R)-4-(1-(5-(cyclopropylmethoxy)pyridin-2-yl)propoxy)-2,3-difluoro-N-((4-(2-methoxyethyl)piperazin-1-yl)sulfonyl)benzamide] | < 100 | < 100
CC[C@@H](Oc1ccc(C(=O)NS(=O)(=O)N2CCC(OC3CCN(CCOC)CC3)CC2)c(F)c1F)c1ccc(Oc2ccccn2)cn1 [(R)-2,3-difluoro-N-((4-((1-(2-methoxyethyl)piperidin-4-yl)oxy)piperidin-1-yl)sulfonyl)-4-(1-(5-(pyridin-2-yloxy)pyridin-2-yl)propoxy)benzamide] | < 100 | < 100
CC[C@@H](Oc1ccc(C(=O)NS(=O)(=O)c2ccc(OCCN(C)C)cc2)c(F)c1F)c1cc(OCC2CC2)ccn1 [(R)-4-(1-(4-(cyclopropylmethoxy)pyridin-2-yl)propoxy)-N-((4-(2-(dimethylamino)ethoxy)phenyl)sulfonyl)-2,3-difluorobenzamide] | 100 to 500 | 100 to 500
CC[C@@H](Oc1ccc(C(=O)NS(=O)(=O)N2CCC(OC3CCN(C)CC3)CC2)c(F)c1F)c1cc(OCC2CC2)ccn1 [(R)-4-(1-(4-(cyclopropylmethoxy)pyridin-2-yl)propoxy)-2,3-difluoro-N-((4-((1-methylpiperidin-4-yl)oxy)piperidin-1-yl)sulfonyl)benzamide] | 100 to 500 | 100 to 500

The remaining lines, values ahead:

IC50 [1] [nM] | IC50 [2] [nM] | Compound
100 to 500 | < 100 | CC[C@@H](Oc1ccc(C(=O)NS(=O)(=O)N2CCC(OCCN(C)C)CC2)c(F)c1F)c1ccc(OCC2CC2)cn1 [(R)-4-(1-(5-(cyclopropylmethoxy)pyridin-2-yl)propoxy)-N-((4-(2-(dimethylamino)ethoxy)piperidin-1-yl)sulfonyl)-2,3-difluorobenzamide]
100 to 500 | < 100 | CC[C@@H](Oc1ccc(C(=O)NS(=O)(=O)N2CCN(C3CCCCC3)CC2)c(F)c1F)c1ccc(Oc2ccccn2)cn1 [(R)-N-((4-cyclohexylpiperazin-1-yl)sulfonyl)-2,3-difluoro-4-(1-(5-(pyridin-2-yloxy)pyridin-2-yl)propoxy)benzamide]
100 to 500 | < 100 | CC[C@@H](Oc1ccc(C(=O)NS(=O)(=O)c2ccc(OCCN3CCCC3)nc2)c(F)c1F)c1ccc(OCC2CC2)cn1 [(R)-4-(1-(5-(cyclopropylmethoxy)pyridin-2-yl)propoxy)-2,3-difluoro-N-((6-(2-(pyrrolidin-1-yl)ethoxy)pyridin-3-yl)sulfonyl)benzamide]
> 500 | < 100 | CC[C@@H](Oc1ccc(C(=O)NS(=O)(=O)N2CC3(CC(OCCN4CCCC4)C3)C2)c(F)c1F)c1ccc(OCC2CC2)cn1 [(R)-4-(1-(5-(cyclopropylmethoxy)pyridin-2-yl)propoxy)-2,3-difluoro-N-((6-(2-(pyrrolidin-1-yl)ethoxy)-2-azaspiro[3.3]heptan-2-yl)sulfonyl)benzamide]
100 to 500 | < 100 | CC[C@@H](Oc1ccc(C(=O)NS(=O)(=O)N2CCN(C3CC3)CC2)c(F)c1F)c1cc(Oc2ccccn2)ccn1 [(R)-N-((4-cyclopropylpiperazin-1-yl)sulfonyl)-2,3-difluoro-4-(1-(4-(pyridin-2-yloxy)pyridin-2-yl)propoxy)benzamide]
> 500 | < 100 | CC[C@@H](Oc1ccc(C(=O)NS(=O)(=O)c2ccc(NC3CCN(C(C)C)CC3)nc2)c(F)c1F)c1ccc(OCC2CC2)cn1 [(R)-4-(1-(5-(cyclopropylmethoxy)pyridin-2-yl)propoxy)-2,3-difluoro-N-((6-((1-isopropylpiperidin-4-yl)amino)pyridin-3-yl)sulfonyl)benzamide]
100 to 500 | < 100 | CC[C@@H](Oc1ccc(C(=O)NS(=O)(=O)c2ccc(OC3CCN(C)CC3)nc2)c(F)c1F)c1ccc(OCC2CC2)cn1 [(R)-4-(1-(5-(cyclopropylmethoxy)pyridin-2-yl)propoxy)-2,3-difluoro-N-((6-((1-methylpiperidin-4-yl)oxy)pyridin-3-yl)sulfonyl)benzamide]
< 100 | < 100 | CC[C@@H](Oc1ccc(C(=O)NS(=O)(=O)N2CCN(C3CCC3)CC2)c(F)c1F)c1ccc(OCC2CC2)cn1 [(R)-N-((4-cyclobutylpiperazin-1-yl)sulfonyl)-4-(1-(5-(cyclopropylmethoxy)pyridin-2-yl)propoxy)-2,3-difluorobenzamide]
< 100 | < 100 | CC[C@@H](Oc1ccc(C(=O)NS(=O)(=O)N2CCN(CC)CC2)c(F)c1F)c1ccc(Oc2ccccn2)cn1 [(R)-N-((4-ethylpiperazin-1-yl)sulfonyl)-2,3-difluoro-4-(1-(5-(pyridin-2-yloxy)pyridin-2-yl)propoxy)benzamide]
100 to 500 | < 100 | CC[C@@H](Oc1ccc(C(=O)NS(=O)(=O)c2ccc(OCCN(C)C)cc2)c(F)c1F)c1ccc(Oc2ccccn2)cn1 [(R)-N-((4-(2-(dimethylamino)ethoxy)phenyl)sulfonyl)-2,3-difluoro-4-(1-(5-(pyridin-2-yloxy)pyridin-2-yl)propoxy)benzamide]
100 to 500 | < 100 | CC[C@@H](Oc1ccc(C(=O)NS(=O)(=O)c2ccc(OCCN(C)C)cc2)c(F)c1F)c1cc(Oc2ccccn2)ccn1 [(R)-N-((4-(2-(dimethylamino)ethoxy)phenyl)sulfonyl)-2,3-difluoro-4-(1-(4-(pyridin-2-yloxy)pyridin-2-yl)propoxy)benzamide]
100 to 500 | < 100 | CC[C@@H](Oc1ccc(C(=O)NS(=O)(=O)c2ccc(OC3CCN(CC(F)F)CC3)cc2)c(F)c1F)c1ccc(OCC2CC2)cn1 [(R)-4-(1-(5-(cyclopropylmethoxy)pyridin-2-yl)propoxy)-N-((4-((1-(2,2-difluoroethyl)piperidin-4-yl)oxy)phenyl)sulfonyl)-2,3-difluorobenzamide]
